Source: patent publication US20230065799A1, “METHOD FOR ATTRIBUTING OLFACTORY TONALITIES TO OLFACTORY RECEPTOR ACTIVATION AND METHODS FOR IDENTIFYING COMPOUNDS HAVING THE ATTRIBUTED TONALITIES” (FIRMENICH SA, priority 2019, published 2023)
Blank lines part the entries; values can stand above or below the molecule they belong to.

Experiments:
OR7A17 = molecular target: T1, OR7A17 (Homo sapiens, UniProt O14581); experiment: OR7A17 cell-based cAMP HTRF assay; conditions: dose-response, 100% = full agonist
T1 construct: Lucy (cleavable signal peptide) (N); FLAG (N); Rho (first 20 aa of bovine rhodopsin) (N); expressed in transfected cells
T1 sequence (O14581 1-309): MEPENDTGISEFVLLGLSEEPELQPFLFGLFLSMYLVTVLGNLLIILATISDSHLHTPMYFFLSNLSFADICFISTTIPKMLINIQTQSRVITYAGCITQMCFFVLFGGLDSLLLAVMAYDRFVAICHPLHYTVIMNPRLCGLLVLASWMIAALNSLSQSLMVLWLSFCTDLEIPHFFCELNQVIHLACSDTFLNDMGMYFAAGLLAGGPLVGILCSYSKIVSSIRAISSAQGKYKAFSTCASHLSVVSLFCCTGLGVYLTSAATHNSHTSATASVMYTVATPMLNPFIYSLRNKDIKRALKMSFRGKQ

OR5A1 = molecular target: T2, OR5A1 (Homo sapiens, UniProt Q8NGJ0); experiment: OR5A1 cell-based cAMP HTRF assay; conditions: dose-response, 100% = full agonist; for Emax: read-out: OR5A1 % Efficacy
T2 construct: Lucy (cleavable signal peptide) (N); FLAG (N); Rho (first 20 aa of bovine rhodopsin) (N); expressed in transfected cells
T2 sequence (Q8NGJ0 1-315): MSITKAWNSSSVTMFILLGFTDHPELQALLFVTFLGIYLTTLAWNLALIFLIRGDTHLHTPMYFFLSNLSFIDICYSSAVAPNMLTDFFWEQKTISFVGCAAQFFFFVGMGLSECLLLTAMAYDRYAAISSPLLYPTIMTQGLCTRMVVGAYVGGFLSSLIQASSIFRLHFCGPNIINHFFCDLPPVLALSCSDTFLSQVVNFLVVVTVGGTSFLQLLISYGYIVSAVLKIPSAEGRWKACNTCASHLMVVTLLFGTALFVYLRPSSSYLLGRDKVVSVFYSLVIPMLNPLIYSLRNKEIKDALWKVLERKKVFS

OR8B3 = molecular target: T3, OR8B3 (Homo sapiens, UniProt Q8NGG8); experiment: OR8B3 cell-based cAMP HTRF assay; conditions: dose-response, 100% = full agonist; for Emax: read-out: OR8B3 % Efficacy
T3 construct: Lucy (cleavable signal peptide) (N); FLAG (N); Rho (first 20 aa of bovine rhodopsin) (N); expressed in transfected cells
T3 sequence (Q8NGG8 1-313): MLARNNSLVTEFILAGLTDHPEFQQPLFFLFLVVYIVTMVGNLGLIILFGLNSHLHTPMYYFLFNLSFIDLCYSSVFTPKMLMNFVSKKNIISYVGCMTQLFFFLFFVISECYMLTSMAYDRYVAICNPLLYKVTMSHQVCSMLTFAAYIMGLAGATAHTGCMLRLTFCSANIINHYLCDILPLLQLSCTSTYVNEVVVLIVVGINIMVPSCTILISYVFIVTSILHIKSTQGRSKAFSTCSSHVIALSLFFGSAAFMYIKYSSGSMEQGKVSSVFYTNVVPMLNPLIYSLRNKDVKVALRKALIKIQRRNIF

OR11A1 = molecular target: T4, OR11A1 (Homo sapiens, UniProt Q9GZK7); experiment: OR11A1 cell-based cAMP HTRF assay in HEK293T cells; conditions: for Emax: HEK-293T, read-out: OR11A1 % Efficacy; for Emax / OR11A1 % Efficacy: dose-response, 100% = full agonist
T4 construct: FLAG (N); Rho (first 20 aa of bovine rhodopsin) (N); expressed in transfected cells
T4 sequence (Q9GZK7 1-315): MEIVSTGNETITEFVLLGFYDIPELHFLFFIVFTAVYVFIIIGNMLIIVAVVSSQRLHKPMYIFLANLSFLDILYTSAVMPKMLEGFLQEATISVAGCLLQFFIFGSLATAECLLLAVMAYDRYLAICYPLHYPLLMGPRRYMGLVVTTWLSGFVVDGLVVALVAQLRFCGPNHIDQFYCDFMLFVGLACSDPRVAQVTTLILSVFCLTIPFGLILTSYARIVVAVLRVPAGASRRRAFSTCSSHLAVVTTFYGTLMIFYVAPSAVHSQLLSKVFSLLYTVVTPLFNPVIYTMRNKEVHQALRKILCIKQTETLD
Procedure: The molecular receptive range of the human odorant receptor OR11A1 (SEQ ID NO. 11) was tested by performing a large scale screening with a chemically and organoleptically diverse volatile compound library comprising approximately 800 compounds. Using a cell-based assay, OR11A1 was tested in an HEK293T cell line wherein the endogenous RTP1 gene has been activated and the odorant receptor chaperone was expressed (WO2016/201153 A1). Cells were co-transfected with the Flag-Rho-tagged receptor and the canonical olfactory G-protein Golf, and exposed to a single concentration of each test compound, tested individually. Receptor activity was detected by measuring the cAMP increase in the cytosol using an HTRF (Homogenous Time-Resolved Fluorescence unit) based kit (CisBio, cAMP dynamic 2 kit, 62AM4PEJ).
First, 300 mM stock solutions for 798 test compounds were made in pure DMSO. The stock solutions for each compound were further diluted to a final test concentration of 300 μM. The final concentration of DMSO was 0.1%, and had no visible effect on the cells. Each compound was presented to a cell line expressing the OR11A1 olfactory receptor. The quality of this high-throughput screening (HTS) process was determined and the window variability and signal reliability were assessed by calculating the Z′ value of each plate (the average Z′ value per plate was 0.72±0.12, well within the required quality standards between 0.5 and 1). The result of this single concentration activation screen is shown in FIG. 3, where hits are highlighted in light grey dots.
In a subsequent step using the same cell-based assay described above, the candidate hits were confirmed to be true agonists (activators) by performing dose-response experiments as shown in FIG. 4 for a subset of the best hits. […] Both sensitivity (potency) and activation strength (efficacy) were calculated from the curves, as a measure of EC50 (the concentration required to reach half-maximal activation level) and Span (the assay window span between baseline activity level and activation saturation plateau), respectively. These values were used to represent the molecular receptive range of OR11A1 according to the potency (X axis) and efficacy (Y axis) in FIG. 5. A partial agonist, Tonalide, is also listed. The […] agonists cover distinct perfumery tonalities: woody (Patchouli Alcohol), musky (Vulcanolide, Tonalide), and camphorous (Fenchyl Alcohol), Table 2. Taken together, the data depict the diversity of both the organoleptic tonalities and chemical structures of compounds capable of activating OR11A1, congruent with results described in WO2016/201152 A1 (musk) and EP2832347A1.(patchouli). The OR11A1 activity however was not associated with the tonalities of musk (WO2016/201152 A1) or patchouli (EP2832347A1) specifically but rather the earthy facet thereof. In fact, the single commonality between these compounds was the earthy tonality, which is semantically captured by the following descriptors: earthy, humus and earthy-moss. These compounds are neither all musks nor patchouli but they all are earthy.

OR5AU1 = molecular target: T5, OR5AU1 (Homo sapiens, UniProt Q8NGC0); experiment: OR5AU1 cell-based cAMP HTRF assay; conditions: for Emax: read-out: OR5AU1 % Efficacy; for Active OR/Linked Tonality: OR5AU1 (Lactonic Coconut): receptor listed = activated by the compound
T5 construct: Lucy (cleavable signal peptide) (N); FLAG (N); Rho (first 20 aa of bovine rhodopsin) (N); expressed in transfected cells
T5 sequence (Q8NGC0 52-362): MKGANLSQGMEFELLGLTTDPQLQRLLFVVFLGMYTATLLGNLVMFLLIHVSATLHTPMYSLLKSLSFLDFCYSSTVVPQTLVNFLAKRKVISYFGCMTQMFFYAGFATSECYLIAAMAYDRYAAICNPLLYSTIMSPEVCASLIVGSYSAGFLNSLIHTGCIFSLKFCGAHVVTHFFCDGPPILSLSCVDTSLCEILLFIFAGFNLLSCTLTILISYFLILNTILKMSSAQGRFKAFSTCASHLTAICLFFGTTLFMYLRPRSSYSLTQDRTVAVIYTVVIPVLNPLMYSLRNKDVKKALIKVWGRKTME

[1] = dose-response, 100% = full agonist

Emax (OR5AU1; [1]): 80%
Molecule: CCCCCC1CCCC1=O (centres unmarked) [Delphone, 2-pentylcyclopentan-1-one]

Emax (OR5AU1; [1]): 92%
Active OR/Linked Tonality: OR5AU1 (Lactonic Coconut) (OR5AU1): OR5AU1/
Molecule: CC=CCCC1CCCC(=O)O1 (centres unmarked) [Delta Jasmolactone, 6-pent-3-enyloxan-2-one]

Emax (OR5AU1; [1]): 88%
Molecule: CCCCCC1CCCC(=O)O1 (centres unmarked) [Delta decalactone, 6-pentyloxan-2-one]

Emax (OR11A1): 86%
Molecule: CC12CCC(C1)C(C)(C)C2O (centres unmarked) [Fenchyl Alcohol, (1~{R},2~{R},4~{S})-1,3,3-trimethylbicyclo[2.2.1]heptan-2-ol]

Active OR/Linked Tonality: OR5AU1 (Lactonic Coconut) (OR5AU1): OR5AU1/
Molecule: CCCCCCC1CCC(=O)O1 (centres unmarked) [Gamma Decalactone, 5-hexyloxolan-2-one]

Active OR/Linked Tonality: OR5AU1 (Lactonic Coconut) (OR5AU1): OR5AU1/
Emax (OR8B3): 100%
Molecule: CCCCC1CCC(=O)O1 (centres unmarked) [Gamma Octalactone, 5-butyloxolan-2-one]

Emax (OR5A1): 82%
Molecule: CCC(=O)C=CC1=C(C)CCCC1(C)C [Methylionone beta, 1-(2,6,6-trimethylcyclohexen-1-yl)pent-1-en-3-one]

Active OR/Linked Tonality: OR5AU1 (Lactonic Coconut) (OR5AU1): OR5AU1/
Emax (OR8B3): 97%
Molecule: CCCCC1CCCC(=O)O1 (centres unmarked) [Nonalactone Delta, 6-butyloxan-2-one]

OR8B3 % Efficacy (OR8B3): 95%
Molecule: O=C1CCC2CCCCC2O1 (centres unmarked) [Octahydrocoumarine, 3,4,4~{a},5,6,7,8,8~{a}-octahydrochromen-2-one]

Active OR/Linked Tonality: OR5AU1 (Lactonic Coconut) (OR5AU1): OR5AU1/
Molecule: CCCC1CCCC(=O)O1 (centres unmarked) [Octalactone Delta, 6-propyloxan-2-one]

OR11A1 % Efficacy (OR11A1): 83%
Molecule: C[C@@H]1CC[C@]2(O)C(C)(C)[C@H]3CC[C@@]2(C)[C@@H]1C3 [Patchouli Alcohol, (1~{S},3~{S},6~{R},7~{R},8~{S})-2,2,6,8-tetramethyltricyclo[5.3.1,0^{3,8}]undecan-3-ol]

OR5AU1 % Efficacy (OR5AU1; [1]): 100%
Molecule: CCCCC[C@H]1OC(=O)C[C@H]1C [Tuberolide Ht, (4~{R},5~{R})-4-methyl-5-pentyloxolan-2-one]

OR11A1 % Efficacy (OR11A1): 89%
Molecule: Cc1cc2c(cc1C=O)C(C)(C)[C@H](C)[C@@H](C)C2(C)C [Vulcanolide, (6~{R},7~{R})-3,5,5,6,7,8,8-heptamethyl-6,7-dihydronaphthalene-2-carbaldehyde]

Active OR/Linked Tonality: OR5AU1 (Lactonic Coconut) (OR5AU1): OR5AU1/
Emax (OR8B3): 88%
Molecule: CCCCC1OC(=O)CC1C (centres unmarked) [Whiskey Lactone K, 5-butyl-4-methyloxolan-2-one]

OR7A17 % Efficacy (OR7A17): 82%
Molecule: CC1(C)CCC[C@]2(C)CC(=O)CC[C@@H]12 [Z-95, (4~{a}~{S},8~{a}~{R})-5,5,8~{a}-trimethyl-3,4,4~{a},6,7,8-hexahydro-1~{H}-naphthalen-2-one]

More lines, now with the values behind:

Molecule: 1-(2,3,8,8-tetramethyl-1,3,4,6,7,8~{a}-hexahydronaphthalen-2-yl)ethanone; 1-(2,3,8,8-tetramethyl-1,3,5,6,7,8~{a}-hexahydronaphthalen-2-yl)ethanone; 1-(2,3,8,8-tetramethyl-1,3,4,5,6,7-hexahydronaphthalen-2-yl)ethanone [Derambrene]
OR7A17 % Efficacy (OR7A17): 83%

Molecule: 1-(4,8-dimethyl-12-methylidenecyclododeca-4,8-dien-1-yl)ethanone; 1-(2,6,10-trimethylcyclododeca-1,5,9-trien-1-yl)ethanone; 1-(2,6,10-trimethylcyclododeca-2,5,9-trien-1-yl)ethanone [Trimofix]
OR7A17 % Efficacy (OR7A17): 74%

Molecule: 4-(2,6,6-trimethylcyclohexen-1-yl)but-3-en-2-one; 4-(2,6,6-trimethylcyclohex-2-en-1-yl)but-3-en-2-one [Violette AT]
OR5A1 % Efficacy (OR5A1): 78%

Molecule: 9-ethylidene-3-oxatricyclo[6.2.1.0^{2,7}]undecan-4-one; 10-ethylidene-3-oxatricyclo[6.2.1.0^{2,7}]undecan-4-one [Florex]
OR8B3 % Efficacy (OR8B3): 74%

Molecule: CC(=O)/C(C)=C/C1C(C)=CCCC1(C)C (racemic) [Methyl ionone gamma, (+−)-(e)-3-methyl-4-(2,6,6-trimethyl-2-cyclohexen-1-yl)-3-buten-2-one]
Emax (OR7A17; read-out: OR7A17 % Efficacy): 65%

Molecule: CC1(C)CCCC(C)(C)C1=O [2,2,6,6-tetramethyl-1-cyclohexanone]
OR11A1 agonism in dose-response experiments (OR11A1): did not yield any significant dose-response

Molecule: O=c1ccc2ccccc2o1 [Coumarin, chromen-2-one]
Emax (OR8B3): 95%

Molecule: CC1CCCC2(C)CCCCC12O (centres unmarked) [Geosmin, (4~{S},8~{a}~{R})-4,8~{a}-dimethyl-1,2,3,4,5,6,7,8-octahydronaphthalen-4~{a}-ol]
Emax (OR11A1): 100%

Molecule: CC(=O)C=CC1=C(C)CCC(C)C1(C)C (stereo not drawn) [Irone beta, 4-(2,5,6,6-tetramethylcyclohexen-1-yl)but-3-en-2-one]
Emax (OR5A1): 91%

Molecule: CC(=O)c1cc2c(cc1C)C(C)(C)C(C)CC2(C)C (centres unmarked) [Tonalide, 1-(3,5,5,6,8,8-hexamethyl-6,7-dihydronaphthalen-2-yl)ethanone]
OR11A1 agonism in dose-response experiments (OR11A1): weak (partial) agonist
Emax (OR11A1): 21%

Molecule: CC1(C)[C@H]2C[C@H]3CCC(=O)C=C3[C@@H]1C2 [Tricyclone, (1~{R},7~{R},9~{S})-10,10-dimethyltricyclo[7.1.1.0^{2,7}]undec-2-en-4-one]
OR8B3 % Efficacy (OR8B3): 77%

Molecule: C[C@@H]1[C@@H]2C[C@H](C[C@]13C=CC(=O)CC3)C2(C)C [Wolfwood, (1~{S},2~{R},3~{R},5~{R})-2,6,6-trimethylspiro[bicyclo[3.1.1]heptane-3,4′-cyclohex-2-ene]-1′-one]
OR7A17 % Efficacy (OR7A17): 100%
